# According to patent publication US6939850B2, “Altered human interleukin-1β convertase (ICE), NEDD-2, and C. elegans ced-3 polypeptides and uses therefor” (Massachusetts Institute of Technology, priority 1992, dated 2005):
# Assays:
# ICE = biological target: T1, ICE (Homo sapiens, UniProt P29466); conditions: protease activity of ICE; cited from earlier work
# T1 sequence (P29466 120-297): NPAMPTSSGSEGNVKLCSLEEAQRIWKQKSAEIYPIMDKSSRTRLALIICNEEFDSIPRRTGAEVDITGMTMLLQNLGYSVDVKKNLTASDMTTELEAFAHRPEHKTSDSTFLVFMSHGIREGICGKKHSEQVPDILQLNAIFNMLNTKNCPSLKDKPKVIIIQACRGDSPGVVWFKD
# T1 sequence (P29466 317-404): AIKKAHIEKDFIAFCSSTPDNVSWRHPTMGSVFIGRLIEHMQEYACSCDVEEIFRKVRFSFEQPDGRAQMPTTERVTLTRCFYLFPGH
# lumbar motoneurons = experiment: Motoneuron death following limb bud removal; type: in vivo, chick
# Excerpt: Peptides. Two peptide inhibitors of ICE, Acetyl-Tyr-Val-Ala-Asp-aldehyde (Ac-YVAD-CHO) and Acetyl-Tyr-Val-Ala-Asp-chloromethylketone (Ac-YVAD-CMK) and two control peptide inhibitors, Acetyl-Leu-Leu-Arg-aldehyde (Ac-LLR-CHO; Leupeptin) and n-tosyl-Lys-chloromethyl-ketone (Tos-Lys-CMK) were synthesized by Bachem Biosciences (King of Prussia, Pa.) and shown by thin layer chromatography and HPLC to be greater than 98% pure. […] Methods for administration of peptides to examine effects on naturally occurring motoneuron cell death in vivo. Although cell death of lumbar motoneurons occurs between E6 and E12, the peak period of death (i.e., the greatest number of pyknotic cells) occurs on E8 (Oppenheim et al., J Comp. Neurol. 177:87-112 (1978)). For these experiments, embryos were given a single administration of an agent on E8 0 hr and sacrificed 15 hours later. […] Ac-YVAD-CMK and Tos-Lys-CMK were administered in a solution of DMSO/BSA, whereas Ac-YVAD-CHO and leupeptin (Sigma) were in BSA alone. The solutions (50-100 μl) were dropped onto the highly vascularized chorioallantoic membrane through a window in the shell. The control groups included both DMSO and BSA or vehicle alone. Embryos were killed and staged by the Hamburger-Hamilton series (Hamburger and Hamilton, J. Morph. 88:49-92 (1951)). The thoraco-lumbar spinal cord was dissected, fixed in Camoys or Bouins fixative, processed for paraffin histology, serially sectioned (10-12 μm) and stained with either thionin or hematoxylin and eosin. Pyknotic motoneurons were identified based on criteria previously described (Chu-Wang and Oppenheim, J. Comp. Neurol. 177:33-58 (1978); Clarke and Oppenheim In Methods in Cell Biology Series; Cell Death; eds: Schwartz and Osborne. Academic Press. New York, N.Y. In press.) and were counted in every 10th or 20th section through the entire lumbar enlargement. The total number of pyknotic cells were then estimated by multiplying these values by 10 or 20. All cell counts were performed by individuals blinded with regard to drug treatment of the embryos. Methods for limb bud removal experiments. A unilateral limb bud removal was performed on E2 as described previously (Oppenheim et al., J. Comp. Neurol. 177:87-112 (1978)). Because induced cell death following limb removal begins on E5 (before that there is no difference in the number of motoneurons between the operated or unoperated sides) embryos were given one treatment of Ac-YVAD-CHO (40 μg) or BSA (control) at E5-0 hr and another at E5-12 hours (total peptide administered was 80 μg). Animals were killed at E6-0 hr. Methods were the same as described above except the section thickness was 6-8 μm (see Method for Administration of Peptides, above). Methods for limb bud interdigital regions. Embryos were treated with 100 μg of peptide or vehicle in 50 μl on E6.0 and on E7.0 (total 200 μg) as described above (Chu-Wang and Oppenheim, J. Comp. Neurol. 177:33-58 (1978); Clarke and Oppenheim In Methods in Cell Biology Series; Cell Death; eds: Schwartz and Osborne. Academic Press. New York, N.Y. In press.) and killed at E7.5. The footpads were placed in Bouin's fixative and processed as described above (see Method of Limb Bud Removal, above). Pyknotic cells in all interdigital regions were counted in every 10th section (6-8 μm) of serial transverse sections through the entire footpad.
# [1] = limb bud removal on E2, 40 μg at E5-0 hr and E5-12 hours, mean ±SD
# [2] = unoperated side, 40 μg at E5-0 hr and E5-12 hours, mean ±SD
substance,measurement,setting,value
Acetyl-Tyr-Val-Ala-Asp-aldehyde [Ac-YVAD-CHO],Ki,ICE,0.76 nM
same,survival promoting effect,lumbar motoneurons; following limb bud removal,no survival promoting effect
same,"Healthy Motoneurons (lumbar) on E6, Ipsilateral",lumbar motoneurons; [1],"11,109 ± 1592"
same,"Pyknotic Motoneurons (lumbar) on E6, Ipsilateral",lumbar motoneurons; [1],317 ± 89
same,"Healthy Motoneurons (lumbar) on E6, Contralateral",lumbar motoneurons; [2],"17,914 ± 1733"
same,"Pyknotic Motoneurons (lumbar) on E6, Contralateral",lumbar motoneurons; [2],67 ± 13
